According to patent US12269902B2, “Peptide compounds and peptide conjugates for the treatment of cancer through receptor-mediated chemotherapy” (TRANSFERT PLUS, S.E.C., priority 2015, dated 2025):
Non-standard residues stand in square brackets, D forms with d. Residues, ends and D or L forms follow the SMILES beside them. *: point of attachment. X3 = COc1cccc2c1C(=O)c1c(O)c3c(c(O)c1C2=O)C[C@@](O)(C(=O)COC(=O)CC(C)(C)CC(=O)*)C[C@@H]3O[C@H]1C[C@H](N)[C@H](O)[C@H](C)O1; X2 = COc1cc(/C=C/C(=O)CC(=O)/C=C/c2ccc(OC(=O)CC(C)(C)CC(=O)*)c(OC)c2)ccc1O; Nle = CCCC[C@H](N)C(=O)O

Columns and labels:
[1] = system: ES-2 ovarian cancer cells; experiment: [3H]-Thymidine incorporation cell proliferation assay, ES-2; format: cell-based; conditions: ES-2 (Ovary)
Description: (§1) The effect of the Docetaxel-Katana peptide conjugate on various cell line proliferations was evaluated and compared to unconjugated Docetaxel (Table 4). IC50 values obtained for the Docetaxel-Katana peptide conjugate were very similar to those of Docetaxel in the cancer cells tested.
(§2) The phytochemical Curcumin, unconjugated and conjugated, was also tested on cancer cell proliferation (FIG. 28). Breast cancer cells (MDA-MB231) were incubated with increasing concentrations of KBC106 or curcumin. After 72 hrs, thymidine incorporation assay was performed to assess the anti-proliferative properties of both molecules. IC50 values were extracted from the anti-proliferative curves. […] Proliferation assay was also performed using different types of cancer cells (ovarian, breast, skin and colorectal cancer cells). IC50 values were calculated from the anti-proliferation curves. In all cases, the Curcumin conjugate (KBC106) had stronger anti-proliferative activity (9-100 fold) than unconjugated Curcumin, as shown in Table 6 below.
(§3) Cancer cells were cultured in 96-well white plates (Perkin Elmer). They were synchronized for 24 hours in serum-deprived medium. After incubation of cells with unconjugated drugs (docetaxel, cabazitaxel, doxorubicin) or with drug-Katana peptide conjugates for 2 or 3 days, all media was aspirated and cells were pulse-labeled for 4 hours at 37° C./[…]/5% CO2 with media containing 2.5 μCi/mL [methyl-3H] thymidine (Perkin Elmer). Cells were washed, fixed, and dried before addition of scintillation fluid (Microscint 0, Perkin Elmer). After 24 hours, cell-associated tritium was quantified by counting on a plate reader (TopCount, Perkin Elmer). Incorporated [3H] thymidine was plotted for each drug concentration.

[2] = system: MDA-MB-231 breast cancer cells; experiment: cells
Description: Breast cancer cells (MDA-MB231) were incubated with increasing concentrations of KBC106 or curcumin. After 72 hrs, thymidine incorporation assay was performed to assess the anti-proliferative properties of both molecules. IC50 values were extracted from the anti-proliferative curves.
as §2, with “curves.” for “curves. In all cases, the Curcumin conjugate (KBC106) had stronger anti-proliferative activity (9-100 fold) than unconjugated Curcumin, as shown in Table 6 below.”
as §3

[3] = system: SK-MEL-28 skin cancer cells; experiment: [3H]-Thymidine incorporation cell proliferation assay, SK-MEL-28; format: cell-based
Description: as §1, §2, §3

A-375 skin cancer cells = experiment: [3H]-Thymidine incorporation cell proliferation assay, A-375; format: cell-based
Description: as §1, §2, §3

[4] = system: ES-2 ovarian cancer cells; experiment: ES-2 ovarian subcutaneous tumors (Doxorubicin, KBB106); format: in vivo, mice; conditions: Day 14 post-treatment; equivalent dose of Doxorubicin 6 mg/kg/week
Description: 25A. Mice were implanted in the flank with ES-2 ovarian cancer cells. Tumor growth was measured using a caliper. When tumors reached a tumor volume of about 150 mm^3, mice were treated with Doxorubicin or KBB106 at an equivalent dose of Doxorubicin (6 mg/kg/week). 25B. […] 25C.
(§4) The effect of the conjugated and unconjugated Doxorubicin was also evaluated on ovarian subcutaneous tumors. Mice were implanted in the with ES-2 ovarian cancer cells. Tumor growth was measured using a caliper. When tumors reached a tumor volume of about 150 mm^3, mice were treated with Doxorubicin or Katana-Doxorubicin conjugate KBB106 at an equivalent dose of Doxorubicin (6 mg/kg/week).

sortilin = target: T1, sortilin (Homo sapiens, UniProt Q99523); experiment: Uptake of KBB106 in ovarian cancer cells with reduced sortilin expression; format: cell-based; conditions: ovarian cancer cells transfected with sortilin siRNA
T1 construct: Ovarian cancer cells were transfected with sortilin siRNA (siSortilin) for 24 hrs and then incubated with KBB106; endogenous in cells
T1 sequence (Q99523 78-831): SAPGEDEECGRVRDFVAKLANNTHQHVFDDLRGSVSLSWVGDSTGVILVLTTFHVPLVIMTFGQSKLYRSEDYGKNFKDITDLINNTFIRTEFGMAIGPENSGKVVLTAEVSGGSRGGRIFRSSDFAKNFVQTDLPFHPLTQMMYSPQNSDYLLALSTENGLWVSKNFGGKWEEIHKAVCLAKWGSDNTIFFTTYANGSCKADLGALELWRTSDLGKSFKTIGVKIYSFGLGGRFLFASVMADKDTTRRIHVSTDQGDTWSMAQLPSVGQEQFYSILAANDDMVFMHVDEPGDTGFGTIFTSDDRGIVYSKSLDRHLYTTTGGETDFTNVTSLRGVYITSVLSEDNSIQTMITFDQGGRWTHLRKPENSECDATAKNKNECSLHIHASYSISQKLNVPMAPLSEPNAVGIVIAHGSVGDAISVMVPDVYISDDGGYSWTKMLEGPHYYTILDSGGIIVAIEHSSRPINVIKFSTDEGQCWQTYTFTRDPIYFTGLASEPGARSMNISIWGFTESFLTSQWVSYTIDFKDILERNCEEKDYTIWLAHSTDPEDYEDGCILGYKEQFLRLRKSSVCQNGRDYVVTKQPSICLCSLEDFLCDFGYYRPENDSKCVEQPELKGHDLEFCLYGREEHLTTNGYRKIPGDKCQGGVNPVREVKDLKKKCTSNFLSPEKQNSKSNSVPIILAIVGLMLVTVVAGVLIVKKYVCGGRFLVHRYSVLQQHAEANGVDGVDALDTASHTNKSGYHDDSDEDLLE
Description: A. Ovarian cancer cells were transfected with sortilin siRNA (siSortilin) for 24 hrs and then incubated with KBB106. Accumulation of KBB106 was monitored by the released of fluorescent Doxorubicin as a function of time. B. Ovarian cancer cells were incubated with KBB106 in the presence or absence of sortilin ligand (Katana peptide, progranulin). KBB106 accumulation was estimated by the released of fluorescent Doxorubicin.
The uptake of the Katana conjugate is increased in cells expressing the sortilin receptor.

[5] = system: SKOV3 ovarian cancer cells; experiment: SKOV3 ovarian subcutaneous tumors (KBB106); conditions: KBB106 18 mg/kg/week
Description: 26A. Mice were implanted in the flank with SKOV3 ovarian cancer cells. When tumors reached a volume of about 150 mm^3, mice were treated with KBB106 (18 mg/kg/week) as indicated by the arrows. […] 26B. Body weight of mice was monitored during the treatments.
as §4

[6] = system: HCC-1569 breast cancer cells; experiment: cells; format: cell-based; conditions: HCC-1569 (HER2+; Herceptin resistant); Table 6
Description: as §2, §3

[7] = system: HCC-1954 breast cancer cells; experiment: cells; format: cell-based; conditions: HCC-1954 (HER2+; Lapatinib resistant); Table 6
Description: as §2, §3

[8] = system: HT-29 colorectal cancer cells; experiment: cells; format: cell-based; conditions: Table 6
Description: as §2, §3

[9] = Homo sapiens, SK-MEL-28 (Skin), Table 4, 2 or 3 days
[10] = Homo sapiens, A-375 (Skin), Table 4, 2 or 3 days

IC50 ([1]; Table 4, 2 or 3 days) | IC50 ([2]; Homo sapiens, MDA-MB-231) | IC50 [3, 9] | IC50 (A-375 skin cancer cells; [10]) | SMILES | tumor volume decrease compared to the vehicle group [4] | also measured
0.66 nM | 0.44 nM | 0.12 nM | 0.34 nM | CO[C@H]1C(=O)[C@]2(C)[C@@H](OC)C[C@H]3OC[C@@]3(OC(C)=O)[C@H]2[C@H](OC(=O)c2ccccc2)[C@]2(O)C[C@H](OC(=O)[C@H](O)[C@@H](NC(=O)OC(C)(C)C)c3ccccc3)C(C)=C1C2(C)C [Cabazitaxel, cabazitaxel] |  | 
73.5 nM | 9.7 nM | 79.3 nM | 11.8 nM | COc1cccc2c1C(=O)c1c(O)c3c(c(O)c1C2=O)C[C@@](O)(C(=O)CO)C[C@@H]3O[C@H]1C[C@H](N)[C@H](O)[C@H](C)O1 [Doxorubicin, doxorubicin] | 43% | 
 |  |  |  | CCCC[C@H](NC(=O)[C@H](CC(N)=O)NC(=O)[C@H](CCCNC(=N)N)NC(=O)[C@@H](NC(=O)CNC(=O)[C@H](C)NC(=O)[C@H](CCCCNC(=O)CC(C)(C)CC(=O)OCC(=O)[C@]1(O)Cc2c(O)c3c(c(O)c2[C@@H](O[C@H]2C[C@H](N)[C@H](O)[C@H](C)O2)C1)C(=O)c1c(OC)cccc1C3=O)NC(=O)[C@H](C)NC(=O)[C@H](CCCNC(=N)N)NC(=O)[C@@H](NC(=O)CNC(C)=O)C(C)C)C(C)C)C(=O)N[C@@H](Cc1ccccc1)C(=O)N[C@@H](CCCCNC(=O)CC(C)(C)CC(=O)OCC(=O)[C@]1(O)Cc2c(O)c3c(c(O)c2[C@@H](O[C@H]2C[C@H](N)[C@H](O)[C@H](C)O2)C1)C(=O)c1c(OC)cccc1C3=O)C(=O)N[C@@H](CO)C(=O)N[C@@H](CCC(=O)O)C(=O)N[C@@H](CO)C(=O)N[C@@H](Cc1ccc(O)cc1)C(=O)O [KBB-106, Acetyl-GVRAK(doxorubicin)AGVRN(Nle)FK(doxorubicin)SESY] (Ac-GVRAK(X3)AGVRN[Nle]FK(X3)SESY-OH; C-terminus assumed) | 97% | uptake in cells where sortilin expression was reduced (sortilin): reduced; effect on body weight [5]: little effect on the body weight; progression of SKOV3 xenograft tumors [5]: significantly decreased compared to the control group
 |  |  |  | CCCC[C@H](NC(=O)[C@H](CC(N)=O)NC(=O)[C@H](CCCNC(=N)N)NC(=O)[C@@H](NC(=O)CNC(=O)[C@H](C)NC(=O)[C@H](CCCCNC(=O)CC(C)(C)CC(=O)Oc1ccc(/C=C/C(=O)CC(=O)/C=C/c2ccc(O)c(OC)c2)cc1OC)NC(=O)[C@H](C)NC(=O)[C@H](CCCNC(=N)N)NC(=O)[C@@H](NC(=O)CNC(C)=O)C(C)C)C(C)C)C(=O)N[C@@H](Cc1ccccc1)C(=O)N[C@@H](CCCCNC(=O)CC(C)(C)CC(=O)Oc1ccc(/C=C/C(=O)CC(=O)/C=C/c2ccc(O)c(OC)c2)cc1OC)C(=O)N[C@@H](CO)C(=O)N[C@@H](CCC(=O)O)C(=O)N[C@@H](CO)C(=O)N[C@@H](Cc1ccc(O)cc1)C(=O)O [KBC106, Acetyl-GVRAK(curcumin)AGVRN(Nle)FK(curcumin)SESY] (Ac-GVRAK(X2)AGVRN[Nle]FK(X2)SESY-OH; C-terminus assumed) |  | IC50 ([1]; Table 6): 1520 nM; IC50 ([2]; MDA-MB231 (Triple negative), Table 6, 72 hrs): 135 nM; IC50 ([3]; SK-MEL-28, Table 6): 243 nM; IC50 (A-375 skin cancer cells; A-375, Table 6): 326 nM; IC50 [6]: 1010 nM; IC50 [7]: 1290 nM; IC50 [8]: 3.6 µM
